Article PMC9718554, “Discovery of a fragment hit compound targeting D-Ala:D-Ala ligase of bacterial peptidoglycan biosynthesis” (Journal of Enzyme Inhibition and Medicinal Chemistry, 2022)
Where two headings read alike, the source gives them in different places.

Target: T1, E. coli DdlB enzyme (D-alanine:D-alanine ligase) (Escherichia coli, UniProt P07862)
T1 construct: made in house; host or cells: E. coli
Experiment: biochemical
Conditions: read-out: DdlB RA; for remaining activity at 2000 µM: tested concentration 2.0 mM; for remaining activity at 1700 µM: tested concentration 1.7 mM; for remaining activity at 2400 µM: tested concentration 2.4 mM; for remaining activity at 2300 µM: tested concentration 2.3 mM; for remaining activity at 2900 µM: tested concentration 2.9 mM; for remaining activity at 2200 µM: tested concentration 2.2 mM; for remaining activity at 2100 µM: tested concentration 2.1 mM; for remaining activity at 2600 µM: tested concentration 2.6 mM; for remaining activity at 3100 µM: tested concentration 3.1 mM; for remaining activity at 3400 µM: tested concentration 3.4 mM; for remaining activity at 2700 µM: tested concentration 2.7 mM; for remaining activity at 3500 µM: tested concentration 3.5 mM; for remaining activity at 1900 µM: tested concentration 1.9 mM; for remaining activity at 2500 µM: tested concentration 2.5 mM; for remaining activity at 3000 µM: tested concentration 3.0 mM
Description: The fragment library was assayed in a DdlB inhibition assay, where fragments were tested for their ability to inhibit the D-Ala-adding activity of DdlB ligase. The orthophosphate formed during the enzymatic reaction was measured spectrophotometrically using malachite green reagent.
A recombinant E. coli DdlB enzyme (D-alanine:D-alanine ligase) was expressed in E. coli[11]. […] The final DMSO concentration was 5%. […] All experiments were performed in duplicates. […] IC50 values were determined by measuring the residual activities in quadruplicate at seven different compound concentrations and calculated using in GraphPad Prism (GraphPad Software, San Diego, CA, USA).

[1] = residual activity, tested concentration 1.8 mM
[2] = residual activity of DdlB, fragment library screening

Compound: CCOc1ccc([C@@H](CC(=O)O)NC(C)=O)cc1 [Compound 6705-0233]
- remaining activity at 2000 µM (fragment library screening): 87%

Compound: COc1ccc(OC)c(-c2oc3ccccc3c(=O)c2O)c1 [Compound 6877-0609]
- remaining activity at 1700 µM: 102%

Compound: Cc1ccc(CC2CC(=O)N(c3ccncc3)C2=O)cc1 (centres unmarked) [Compound 6903-0015]
- remaining activity at 2000 µM (residual activity): 84%

Compound: O=C(Nc1ccccn1)NC1CCS(=O)(=O)C1 (centres unmarked) [Compound 7098-0576]
- remaining activity at 2400 µM: 87%

Compound: Nc1ncnc2[nH]c(N3CCOCC3)nc12 [Compound 8001-0336]
- remaining activity at 2300 µM (residual activity): 98%

Compound: Nc1ccc(S(=O)(=O)O)cc1 [Compound 8001-1265]
- remaining activity at 2900 µM: 95%

Compound: O=C(Nc1nc[nH]n1)c1ccc(Cl)cc1 [Compound 8003-7117]
- remaining activity at 2200 µM (residual activity): 103%

Compound: O=C1CSC2N1CCNC21CCCCC1 (centres unmarked) [Compound 8003-7360]
- remaining activity at 2200 µM: 90%

Compound: CCC(CC)NC1=NS(=O)(=O)c2ccccc21 [Compound 8003-7481]
- remaining activity at 2400 µM: 100%

Compound: NCCNC(=O)c1nonc1N [Compound 8006-0101]
- remaining activity at 3200 µM (residual activity of DdlB, fragment library screening, tested concentration 3.2 mM): 93%

Compound: CC(=O)Nc1ccc2c(C)cc(C)nc2n1 [Compound 8006-1575]
- remaining activity at 2300 µM: 97%

Compound: Cc1ccc(C(=O)O)c(NC(=O)c2ccncc2)c1 [Compound 8006-9224]
- remaining activity at 2000 µM (residual activity): 97%

Compound: CCCOc1ccc(C(=O)NCC(=O)O)cc1 [Compound 8007-0359]
- remaining activity at 2100 µM: 86%

Compound: Cc1ccc(C2(O)CC(C)N(C)CC2C)cc1 (centres unmarked) [Compound 8007-1141]
- remaining activity at 2600 µM: 94%

Compound: O=C(O)Cn1nnc(-c2ccccc2Cl)n1 [Compound 8007-4998]
- remaining activity at 2100 µM: 93%

Compound: COC(=O)N1C2C=CC(C2)C1(C(F)(F)F)C(F)(F)F (centres unmarked) [Compound 8007-6774]
- remaining activity at 2100 µM (residual activity): 89%

Compound: NS(=O)(=O)Cc1ccccc1Cl [Compound 8008-0774]
- remaining activity at 2400 µM: 89%

Compound: Cc1cc(C)c(S(N)(=O)=O)c(Cl)n1 [Compound 8008-1931]
- remaining activity at 2300 µM: 78%

Compound: CCN(CC)S(=O)(=O)c1ncn[nH]1 [Compound 8008-1932]
- remaining activity at 2400 µM: 93%

Compound: OB1OCc2ccccc21 [Compound 8008-5589]
- remaining activity at 3700 µM (tested concentration 3.7 mM): 85%

Compound: Cc1nc(C#N)c(N2CCOCC2)o1 [Compound 8008-9715]
- remaining activity at 3100 µM: 93%

Compound: Cc1cccc(C(=O)O)c1NC(=O)c1ccc(F)cc1 [Compound 8009-0898]
- remaining activity at 1800 µM [1]: 99%

Compound: N#Cc1ccc(NC(=O)[C@H]2CC=CC[C@H]2C(=O)O)cc1 [Compound 8009-1194]
- remaining activity at 2000 µM (residual activity): 91%

Compound: O=S(=O)(O)c1ccc2cccc(O)c2n1 [Compound 8009-2146]
- remaining activity at 2200 µM: 96%

Compound: O=C(O)C#CC12CC3CC(CC(C3)C1)C2 [Compound 8009-2654]
- remaining activity at 2400 µM: 112%

Compound: CC1CN(c2ccccc2)NC1=O (centres unmarked) [Compound 8009-3796]
- remaining activity at 3400 µM [2]: 97%

Compound: Cc1cc(F)c(F)c(C(=O)n2ccnc2)c1Cl [Compound 8009-4247]
- remaining activity at 2100 µM: 102%

Compound: Cc1nc2nc(S(N)(=O)=O)nn2c(C)c1C [Compound 8009-4322]
- remaining activity at 2100 µM: 97%

Compound: Cc1ccc(C#N)c(SCC(=O)O)n1 [Compound 8009-7785]
- remaining activity at 2400 µM: 82%

Compound: Oc1nsnc1N1CCOCC1 [Compound 8009-8691]
- remaining activity at 2700 µM: 88%

Compound: CCc1c(C)nn2cnnc2c1O [Compound 8010-0007]
- remaining activity at 3400 µM [2]: 97%

Compound: Cc1ccc(Cl)cc1S(=O)(=O)N1CCOCC1 [Compound 8010-0539]
- remaining activity at 2000 µM (residual activity): 98%

Compound: O=[N+]([O-])c1cc(CN2CCCC2)c2cccnc2c1O [Compound 8010-2705]
- remaining activity at 1800 µM [1]: 57%

Compound: Nc1n[nH]c(CC(=O)O)n1 [Compound 8010-3882]
- remaining activity at 3500 µM: 100%

Compound: CCCc1cc(C(=O)O)n(C)n1 [Compound 8010-6224]
- remaining activity at 3300 µM (residual activity of DdlB, fragment library screening, tested concentration 3.3 mM): 90%

Compound: Cc1ccc(C(=O)CC2(O)C(=O)Nc3ccccc32)c(C)c1 (centres unmarked) [Compound 8010-6588]
- remaining activity at 1700 µM: 93%

Compound: O=C(O)c1ccccc1NC(=O)c1[nH]ncc1[N+](=O)[O-] [Compound 8010-7769]
- remaining activity at 1800 µM [1]: 99%

Compound: COC(C(=O)NC1CC1)c1ccccc1 (centres unmarked) [Compound 8010-8989]
- remaining activity at 2400 µM: 94%

Compound: Cc1cc2nc(O)c(CCO)c(C)n2n1 [Compound 8011-1975]
- remaining activity at 2900 µM: 95%

Compound: CSCCC(C(=O)O)N1C(=O)NC2NC(=O)NC21 (centres unmarked) [Compound 8011-2492]
- remaining activity at 1800 µM (tested concentration 1.8 mM): 95%

Compound: O=C(O)C1CSC(c2c(F)cc(F)cc2F)N1 (centres unmarked) [Compound 8011-4426]
- remaining activity at 1900 µM: 90%

Compound: NC(=O)N[C@@H](Cc1ccccc1)C(=O)O [Compound 8011-7026]
- remaining activity at 2400 µM: 93%

Compound: CC1SC(c2ccc(Cl)c(Cl)c2)NC1=O (centres unmarked) [Compound 8011-7610]
- remaining activity at 1900 µM: 80%

Compound: Oc1cc(-c2ccncc2)n[nH]1 [Compound 8011-7794]
- remaining activity at 3100 µM: 77%

Compound: COC(=O)c1sc(C(=O)OC)c(O)c1O [Compound 8011-7913]
- remaining activity at 2200 µM (residual activity): 86%

Compound: O=C(Nc1ccccc1)c1nc[nH]c1C(=O)O [Compound 8011-9089]
- remaining activity at 2200 µM (residual activity): 104%

Compound: NC(=O)NCC(=O)N[C@H](Cc1c[nH]cn1)C(=O)O [Compound 8012-0410]
- remaining activity at 2000 µM (fragment library screening): 91%

Compound: CC(C)C(=O)Nc1ccc(Cl)cc1C(=O)O [Compound 8012-2055]
- remaining activity at 2100 µM (residual activity): 110%

Compound: CC1(C)CC(=O)CC(C)(C)N1OC(=O)c1ccccn1 [Compound 8012-5220]
- remaining activity at 2200 µM (residual activity): 97%

Compound: Cc1cc(C)n(CCO)c(=O)n1 [Compound 8012-5852]
- remaining activity at 2400 µM [2]: 94%

Compound: O=C(O)CCNc1nc(F)cc(F)n1 [Compound 8012-6989]
- remaining activity at 2500 µM: 93%

Compound: CC(C)(C)c1cc(C(=O)O)nn1-c1ccccc1 [Compound 8012-7831]
- remaining activity at 2000 µM (residual activity): 102%

Compound: Nn1cnn(Cc2ccc([N+](=O)[O-])cc2)c1=O [Compound 8012-9514]
- remaining activity at 2100 µM: 106%

Compound: O=S(=O)(c1ncn[nH]1)N1CCOCC1 [Compound 8013-0403]
- remaining activity at 2300 µM (residual activity): 95%

Compound: CCN(Cc1ccccc1)S(=O)(=O)c1ncn[nH]1 [Compound 8013-0404]
- remaining activity at 1900 µM (residual activity): 89%

Compound: C#CC1(O)C(C)CN(C)CC1C (centres unmarked) [Compound 8013-1764]
- remaining activity at 3600 µM (residual activity of DdlB, fragment library screening, tested concentration 3.6 mM): 97%

Compound: COc1ccc(C(O)(C(=O)O)C(F)(F)F)cc1OC (centres unmarked) [Compound 8013-2786]
- remaining activity at 1800 µM [1]: 94%

Compound: O=C1CC2CS(=O)(=O)CC2N1C1CCCCC1 (centres unmarked) [Compound 8013-3540]
- remaining activity at 2100 µM: 82%

Compound: CC1(C)CC(n2nc(O)cc2N)CCO1 (centres unmarked) [Compound 8013-3639]
- remaining activity at 2400 µM: 101%

Compound: CC1(C)Cc2noc(N)c2C(C)(C)N1O [Compound 8013-4059]
- remaining activity at 2200 µM: 96%

Compound: O=c1[nH]c2cc(S(=O)(=O)N3CCCCC3)ccc2o1 [Compound 8013-5568]
- remaining activity at 1800 µM (tested concentration 1.8 mM): 103%

Compound: O=C(O)Cn1nnc(O)n1 [Compound 8013-5932]
- remaining activity at 3500 µM: 86%

Compound: COc1ccc(-n2c(C)ccc2C)nc1 [Compound 8014-1211]
- remaining activity at 2500 µM: 22%

Compound: CC(C)(C)C(N)Cn1cccn1 (centres unmarked) [Compound 8014-1588]
- remaining activity at 2100 µM [2]: 99%

Compound: O=C1C(O)CC2c3ccccc3CC3(CCCC3)N12 (centres unmarked) [Compound 8014-1716]
- remaining activity at 2300 µM: 85%

Compound: CC(C)n1ncc(C(N)=O)c1N [Compound 8014-2120]
- remaining activity at 3000 µM [2]: 92%

Compound: CC(=O)N1CCC(O)C2CCCCC21 (centres unmarked) [Compound 8014-2178]
- remaining activity at 2500 µM: 99%

Compound: COC(=O)C(O)(c1cc(C)c(N)c(C)c1)C(F)(F)F (centres unmarked) [Compound 8015-4257]
- remaining activity at 1800 µM: 94%

Compound: Cc1nn(-c2ccccn2)c2c1C(=O)C(C#N)CC2 (centres unmarked) [Compound 8015-7286]
- remaining activity at 2200 µM: 83%

Compound: O=C(O)CC1(CC(=O)Nc2cccnc2)CCCC1 [Compound 8016-0695]
- remaining activity at 1900 µM (fragment library screening): 93%

Compound: Cc1cc(O)n(-c2nnn[nH]2)n1 [Compound 8016-1033]
- remaining activity at 3000 µM: 80%

Compound: O=C(O)c1nc2ccccc2nc1O [Compound 8016-8257]
- remaining activity at 2600 µM: 97%

Compound: N#Cc1ccccc1S(N)(=O)=O [Compound 8016-9723]
- remaining activity at 2700 µM: 88%

Compound: COc1cc(C(=O)NO)cc(OC)c1OC [Compound 8017-0604]
- remaining activity at 2200 µM (residual activity): 96%

Compound: O=C(O)c1n[nH]cc1Br [Compound 8017-3539]
- remaining activity at 2600 µM: 87%

Compound: COC(=O)c1nnn(-c2ccccc2)c1O [Compound 8017-3559]
- remaining activity at 2300 µM: 104%

Compound: C=CCN1C(=O)NOC(N)=C1C#N [Compound 8017-4055]
- remaining activity at 2800 µM (tested concentration 2.8 mM): 92%
